One experiment deals with SW403 (colon). Put plainly: CellTiter GLO viability assay, SW403. The experiment is classed as cell-based. The conditions noted are these: Homo sapiens, SW-403, 144 h, read-out: IC50 (μM) incubation time 144 h. The procedure:
(§1) The CellTiter-Glo Luminescent Cell Viability Assay (Promega) is a homogeneous method of determining the number of viable cells in culture. It is based on quantification of ATP, indicating the presence of metabolically active cells.
(§2) […] After incubation for 3 h in humidified chambers at 37° C./5% CO2 compounds/DMSO were added at different concentrations. […] Cells treated with the compound vehicle DMSO were used as positive controls and cells treated with 10 μM Staurosporine served as negative controls. […] Thereon, mixture and assay plates were equilibrated at room temperature for 20 min. Equal volumes of the reagent-medium-mixture was added to the volume of culture medium present in each well.
(§3) The plates were mixed at ˜200 rpm for 2 minutes on an orbital shaker. The microplates were then incubated at room temperature for 10 minutes for stabilization of the luminescent signal. Following incubation the luminescence is recorded on a Victor microplate reader (Perkin Elmer) using 200 ms integration time. The data were then analyzed with Excel using the XLFIT Plugin (dose response Fit 205) for IC50-determination. As quality control the Z′-factor was calculated from 16 positive and negative control values. Only assay results showing a Z′-factor≥0.5 were used for further analysis.
(In general: Cellular ATP, detected with luciferase, serves as a proxy for viable cell number.)

Another experiment concerns SW48 (colon). Put plainly: CellTiter GLO viability assay, SW48. The conditions noted are these: Homo sapiens, 144 h, read-out: IC50 (μM) incubation time 144 h. The format is cell-based. The procedure:
as §1
(§4) Cells were seeded on day 1 at cell numbers that assure assay linearity and optimal signal intensity. After incubation for 3 h in humidified chambers at 37° C./5% CO2 compounds/DMSO were added at different concentrations. […] Cells treated with the compound vehicle DMSO were used as positive controls and cells treated with 10 μM Staurosporine served as negative controls. […] Thereon, mixture and assay plates were equilibrated at room temperature for 20 min. Equal volumes of the reagent-medium-mixture was added to the volume of culture medium present in each well.
as §3

The test system of another experiment is HEC-59 (endometrial). Kind of experiment: CellTiter GLO viability assay, HEC-59. The conditions noted are these: 144 h, read-out: IC50 (μM) incubation time 144 h. The experiment is classed as cell-based. The procedure:
as §1, §4, §3

Experiment [1] deals with mitochondrial transcription (7S RNA) in HeLa cells. Put plainly: Quantitative real time-PCR assay of inhibition of mitochondrial transcription (cellular qPCR assay IMT). The experiment is classed as cell-based. The conditions noted are these: Homo sapiens, 4 h compound incubation, qRT-PCR according to Example 5, activity class. In outline: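 HeLa cells were exposed 4 h to compound dilution series or DMSO. Mitochondrial 7S RNA, with POLRMT for nuclear transcription, was measured by TaqMan qRT-PCR, normalised to TBP. Biological triplicates were analysed by ΔΔCt and expressed as Rq % (2^-ΔΔCt).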
For orientation: In qPCR the cycle at which signal appears reflects the starting amount.

In the next experiment the test system is NCI-H596 (lung). Put plainly: CellTiter GLO viability assay, NCI-H596. The conditions noted are these: Homo sapiens, 144 h, read-out: IC50 (μM) incubation time 144 h. The experiment is classed as cell-based. The procedure:
as §1, §4, §3

The target in experiment [2] is mitochondrial RNA-polymerase (POLRMT) (Mus musculus, UniProt Q8BKF1). Kind of experiment: Homogeneous TR-FRET assay for mitochondrial transcription activity. The conditions noted are these: homogeneous TR-FRET assay according to Example 4; activity class. The format is biochemical. In outline: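 Mouse POLRMT, TFAM and TFB2M with linearized pUC-LSP template in 10 mM Tris-HCl pH 7.5, 10 mM MgCl2, 40 mM NaCl; compounds at 10 μM or serial dilution, 10 min RT preincubation. Started with 500 μM each […], 2 h RT; 407 bp RNA product detected by hybridized Eu-cryptate/ATTO647N probe TR-FRET (ex 340, em 665 nm).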

The next experiment relates to HRT-18 (colon). Kind of experiment: CellTiter GLO viability assay, HRT-18. The format is cell-based. The conditions noted are these: Homo sapiens, 144 h, read-out: IC50 (μM) incubation time 144 h. The procedure: as §1, §4, §3
A further experiment has as its system SW948 (colon). Kind of experiment: CellTiter GLO viability assay, SW948. The format is cell-based. The conditions noted are these: Homo sapiens, 144 h, read-out: IC50 (μM) incubation time 144 h. The procedure: as §1, §4, §3
A further experiment relates to CA-46 (lymphoma). Kind of experiment: CellTiter GLO viability assay, CA-46. The experiment is classed as cell-based. The conditions noted are these: Homo sapiens, CA46, 144 h, read-out: IC50 (μM) incubation time 144 h. The procedure: as §1, §2, §3
The next experiment deals with NCI-H23 (lung). Put plainly: CellTiter GLO viability assay, NCI-H23. The format is cell-based. The procedure:
as §1, §4, §3

Another experiment has as its system NCI-H1299 (lung). Kind of experiment: CellTiter GLO viability assay, NCI-H1299. The format is cell-based. The conditions noted are these: Homo sapiens, 144 h, read-out: IC50 (μM) incubation time 144 h. The procedure: as §1, §4, §3

For orientation: IC50 means the concentration that gives 50% inhibition.

Some results are limits rather than exact numbers.

mitochondrial RNA-polymerase (POLRMT), sequence (Q8BKF1 42-1207): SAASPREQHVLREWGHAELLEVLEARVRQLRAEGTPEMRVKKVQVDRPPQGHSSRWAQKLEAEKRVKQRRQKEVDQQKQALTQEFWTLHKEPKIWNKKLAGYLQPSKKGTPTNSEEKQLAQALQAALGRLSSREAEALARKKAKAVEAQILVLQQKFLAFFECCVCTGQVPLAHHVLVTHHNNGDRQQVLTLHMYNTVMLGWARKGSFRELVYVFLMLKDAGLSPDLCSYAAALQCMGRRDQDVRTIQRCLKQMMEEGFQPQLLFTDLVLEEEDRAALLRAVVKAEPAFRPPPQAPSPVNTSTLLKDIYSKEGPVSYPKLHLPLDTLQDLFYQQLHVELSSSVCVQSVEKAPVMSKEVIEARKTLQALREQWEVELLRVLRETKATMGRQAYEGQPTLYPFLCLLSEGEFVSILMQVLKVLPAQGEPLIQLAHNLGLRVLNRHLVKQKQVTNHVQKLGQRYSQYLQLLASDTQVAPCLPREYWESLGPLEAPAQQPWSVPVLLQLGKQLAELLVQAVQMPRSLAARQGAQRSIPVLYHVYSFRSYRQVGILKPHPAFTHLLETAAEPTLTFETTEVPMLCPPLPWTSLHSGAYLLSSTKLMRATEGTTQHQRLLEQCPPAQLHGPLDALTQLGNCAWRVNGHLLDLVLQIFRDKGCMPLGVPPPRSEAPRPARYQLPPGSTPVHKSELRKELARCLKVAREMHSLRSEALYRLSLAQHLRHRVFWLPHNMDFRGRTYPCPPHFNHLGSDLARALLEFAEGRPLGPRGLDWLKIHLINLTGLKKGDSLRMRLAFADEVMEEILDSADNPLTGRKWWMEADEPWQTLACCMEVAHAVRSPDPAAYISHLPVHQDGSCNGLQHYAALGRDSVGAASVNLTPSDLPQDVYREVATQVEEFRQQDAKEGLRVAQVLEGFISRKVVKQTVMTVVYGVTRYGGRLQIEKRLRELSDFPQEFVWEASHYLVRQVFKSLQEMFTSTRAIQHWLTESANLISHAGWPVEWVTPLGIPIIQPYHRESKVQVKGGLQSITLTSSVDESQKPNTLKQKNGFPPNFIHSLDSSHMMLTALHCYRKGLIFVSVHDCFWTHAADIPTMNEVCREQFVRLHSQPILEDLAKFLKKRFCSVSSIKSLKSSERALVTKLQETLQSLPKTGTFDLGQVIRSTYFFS

Turning to `Cc1ccccc1-c1cc(=O)oc2cc(OC(C)C(=O)N(C)C)ccc12` (stereo not drawn) [Compound 38, N,N-dimethyl-2-[4-(o-tolyl)-2-oxo-chromen-7-yl]oxy-propanamide], the IC50 was 0.1 to 1 µM with SW403 (colon); 1 to 10 µM with SW48 (colon); more than 10 µM in the experiment with HEC-59 (endometrial); less than 10 nM in [1]; 1 to 10 µM with NCI-H596 (lung); less than 20 nM in [2]. The IC50 in the experiment with HRT-18 (colon) is not above 0.1 µM; with SW948 (colon), 0.1 to 1 µM; with CA-46 (lymphoma), 0.1 to 1 µM; in the experiment with NCI-H23 (lung) (Homo sapiens, NCI-H23 (lung), 144 h, read-out: IC50 (μM) incubation time 144 h), 1 to 10 µM; in the experiment on NCI-H1299 (lung), 0.1 to 1 µM. For the same molecule, in the experiment on NCI-H23 (lung) (NCl-H23), the “sensitivity of the cell line (in words)” value was “moderate sensitivity”.

For the origin of these results see patent US11111238B2, “Coumarin derivatives, processes for their preparation and uses thereof for the treatment of cancer” (Lead Discovery Center GmbH, priority 2017, dated 2021).
